The source of these data is patent US20230286973A1, “PROTEIN SECRETION INHIBITORS” (KEZAR LIFE SCIENCES, priority 2020, published 2023).

pEC50, pIC50: −log10 of the molar value. Bounds are passed on as bounds.

The pEC50 is the negative decadic logarithm of the EC50, by convention in mol/L.

The subject of data set [1] is PD1-ss+10aa/Gaussia Luciferase. Briefly: Dox-Induced PD1-ss-Gluc Assay. Format: cell-based. The note with it: 24 hr Dox induction; 293FRT/TO cells; read-out: 24 hr Dox Inducible PD1ssGluc 293FRT/TO: Mean IC50. In a few lines:
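Doxycycline-induced expression of a PD1-ss+10aa/Gaussia luciferase reporter is measured in stable Flp-In 293 T-REx cells. Compound dilutions containing doxycycline are added one day after plating and incubated at 37 °C, 5% CO2. Values for unassigned stereocentres refer to stereoisomer mixtures.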

Data set [2] has as its system TNFα-FL/Gaussia Luciferase. Briefly: Dox Induced TNFα-FL-Gluc Assay. Type of data set: cell-based. The following applies: for pIC50: 24 hr Dox induction, 293FRT/TO cells, read-out: 24 hr Dox Inducible TNFaFLGluc 293FRT/TO: Mean IC50; for 24 hr Dox Inducible TNFaFLGluc 293FRT/TO: TNF/PD1: ratio of TNFaFLGluc IC50 to PD1ssGluc IC50. In a few lines: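 Compound was added with doxycycline to cells plated a day earlier, incubating at 37° C under 5% CO2. The reporter line is 293 T-REx expressing a TNFα (1-233)–Gaussia luciferase fusion under tetracycline-regulated control.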

Data set [3] concerns HER3-ss+4aa/Gaussia Luciferase. Briefly: Dox-Induced Her3-ss-Gluc Assay. The note with it: 24 hr Dox induction; 293FRT/TO cells; read-out: 24 hr Dox Inducible Her3(ss + 4)Gluc 293FRT/TO: Mean IC50. Type of data set: cell-based. In a few lines:
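Compounds were diluted in DMSO/media containing doxycycline. They were added to Flp-In 293 T-REx cells plated the previous day, then incubated at 37 °C under 5% CO2. These cells stably express, under T-REx control, Gaussia luciferase fused to the HER3 signal sequence plus 4 amino acids.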

The subject of data set [4] is IL-2-FL/Gaussia Luciferase. Briefly: Dox Induced IL2-FL-Gluc Assay. Format: cell-based. The following applies: for pIC50: 24 hr Dox induction, 293FRT/TO cells, read-out: 24 hr Dox Inducible IL2FLGluc 293FRT/TO: Mean IC50; for 24 hr Dox Inducible IL2FLGluc 293FRT/TO: IL2/PD1: ratio of IL2FLGluc IC50 to PD1ssGluc IC50. In a few lines: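 Compounds in DMSO/medium with doxycycline were applied to a 293 T-REx stable line expressing an IL-2 (aa 1-153)–Gaussia luciferase fusion under tetracycline-regulated control, cells seeded one day earlier; incubation at 37 °C, 5% CO2. Structures drawn without stereochemistry were tested as stereoisomer mixtures.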

In data set [5] the test system is multiple myeloma cell line NCI-H929. As to the kind of experiment: H929 Cell Viability Assay. Type of data set: cell-based, human. The note with it: Homo sapiens, NCI-H929, 48 h, NCI-H929 cells, Celltiter-Glo. In a few lines: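 Luminescent CellTiter-Glo read-out of viability after a 48 h exposure (37° C, 5% CO2) of NCI-H929 myeloma cells to compound dilutions in RPMI 1640 plus 10% FBS. Data for structures drawn without stereochemistry refer to stereoisomer mixtures.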

The test system of data set [6] is multiple myeloma cell line U266B1. Briefly: U266 Cell Viability Assay. Type of data set: cell-based, human. The note with it: Homo sapiens, U-266, 48 h, U266B1 cells, Celltiter-Glo. In a few lines:
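CellTiter-Glo luminescence was read after a 48 h compound exposure (37 °C, 5% CO2) of human U266B1 myeloma cells grown in 10% FBS-supplemented RPMI 1640. Data for structures shown without defined stereochemistry refer to stereoisomer mixtures.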
Background: In ATP-based viability assays light output follows the ATP content of the culture.

Data set [7] in a line: Liver Microsome Stability Assay (rat). The following applies: rat liver microsomes, with NADPH, 1.0 uM compound.
Experimental: (§1) Stability of a compound was assessed in the presence of liver microsomes from various sources—mouse, rat, monkey and human liver microsomes. 1.0 uM compound, 0.4% DMSO in 0.1 M Potassium Phosphate with 1.0 mg/mL liver microsomes, were incubated at 37° C. with or without 1 mM NADPH. The samples were quenched at 0, and 30 minutes.
Data set [8] can be described thus: Liver Microsome Stability Assay (mouse). The following applies: mouse liver microsomes, with NADPH, 1.0 uM compound. For orientation: Liver microsomes are a subcellular fraction often used to study metabolism.
Experimental: as §1
The nature of data set [9]: Liver Microsome Stability Assay (human). The following applies: human liver microsomes, with NADPH, 1.0 uM compound.
Experimental: as §1
Data set [10] is described as follows: Liver Microsome Stability Assay (monkey). The note with it: monkey liver microsomes, with NADPH, 1.0 uM compound.
Experimental: as §1

On to `CC(C)n1cnc(-c2ccccc2-c2csc(NC(=O)c3cccn3Cc3ccnc(F)c3)n2)c1` [Compound A169, 1-((2-fluoropyridin-4-yl)methyl)-N-(4-(2-(1-isopropyl-1H-imidazol-4-yl)phenyl)thiazol-2-yl)-1H-pyrrole-2-carboxamide], for which the pIC50 in [1] was 6.01; in data set [2] it was 5.16; in [3], 5.78; in data set [4] it was 5.66. The “24 hr Dox Inducible TNFaFLGluc 293FRT/TO: TNF/PD1” value in data set [2] is 7.13. Besides, the “24 hr Dox Inducible IL2FLGluc 293FRT/TO: IL2/PD1” value in data set [4] was 2.2. Further, the negative-log EC50 (pEC50) in data set [5] is 5.11; in data set [6] it was 4.82. In addition, in data set [7], the “Liver Microsome Stability (Multiple Species): Rat - % Remaining after 30 min w/NADPH” value was found to be 0.02%. For the same compound, the “Liver Microsome Stability (Multiple Species): Mouse - % Remaining after 30 min w/NADPH” value in data set [8] amounted to 0.08%. The “Liver Microsome Stability (Multiple Species): Human - % Remaining after 30 min w/NADPH” value in data set [9] is 0.17%. Further, in data set [10], the “Liver Microsome Stability (Multiple Species): Monkey - % Remaining after 30 min w/NADPH” value is given as 0.11%.
Take `O=C(Nc1nc([C@H]2CCCN2c2ccc(OC3CCSCC3)cc2)cs1)c1cccn1Cc1ccnc(F)c1` [Compound A170, (R)-1-((2-fluoropyridin-4-yl)methyl)-N-(4-(1-(4-((tetrahydro-2H-thiopyran-4-yl)oxy)phenyl)pyrrolidin-2-yl)thiazol-2-yl)-1H-pyrrole-2-carboxamide]: the pIC50 in data set [1] is 7.17; in data set [2], 6.16; in [3], 7.09; in data set [4], 7.08. In addition, the “24 hr Dox Inducible TNFaFLGluc 293FRT/TO: TNF/PD1” value in [2] came to 10.1. The “24 hr Dox Inducible IL2FLGluc 293FRT/TO: IL2/PD1” value in [4] is 1.2. For the same compound, the negative logarithm of the EC50 (pEC50) in data set [5] is 5.24; in data set [6], below 4.60. The “Liver Microsome Stability (Multiple Species): Rat - % Remaining after 30 min w/NADPH” value in data set [7] was determined as 2.02%. Besides, the “Liver Microsome Stability (Multiple Species): Mouse - % Remaining after 30 min w/NADPH” value in [8] is 1.37%. Moreover, the “Liver Microsome Stability (Multiple Species): Human - % Remaining after 30 min w/NADPH” value in data set [9] is 0.58%. In [10], the “Liver Microsome Stability (Multiple Species): Monkey - % Remaining after 30 min w/NADPH” value is on record as 2.6%.
Consider `O=C(Nc1ccc(N2CCC[C@@H]2c2csc(NC(=O)c3cccn3Cc3ccnc(F)c3)n2)cc1)O[C@@H]1CCOC1` [Compound A171, (R)-tetrahydrofuran-3-yl (4-((R)-2-(2-(1-((2-fluoropyridin-4-yl)methyl)-1H-pyrrole-2-carboxamido)thiazol-4-yl)pyrrolidin-1-yl)phenyl)carbamate], for which the pIC50 was 8.45 in [1], 7.14 in data set [2], 8.36 in [3] and 8.18 in data set [4]. The “24 hr Dox Inducible TNFaFLGluc 293FRT/TO: TNF/PD1” value in data set [2] was 20.1. The “24 hr Dox Inducible IL2FLGluc 293FRT/TO: IL2/PD1” value in [4] is reported as 1.8. Moreover, the pEC50 in [5] was 6.80; in data set [6], below 4.60. The “Liver Microsome Stability (Multiple Species): Rat - % Remaining after 30 min w/NADPH” value in [7] is recorded as 16%. Moreover, in data set [8], the “Liver Microsome Stability (Multiple Species): Mouse - % Remaining after 30 min w/NADPH” value was determined as 17.3%. Also, the “Liver Microsome Stability (Multiple Species): Human - % Remaining after 30 min w/NADPH” value in [9] is recorded as 36.8%. For the same compound, in data set [10], the “Liver Microsome Stability (Multiple Species): Monkey - % Remaining after 30 min w/NADPH” value came out at 28.5%.
`COC(=O)Nc1ccc(N2CCC[C@@H]2c2csc(NC(=O)c3cc(C)cn3Cc3ccnc(F)c3)n2)cc1` [Compound A172, methyl (R)-(4-(2-(2-(1-((2-fluoropyridin-4-yl)methyl)-4-methyl-1H-pyrrole-2-carboxamido)thiazol-4-yl)pyrrolidin-1-yl)phenyl)carbamate]: the pIC50 in data set [1] was 8.58; in data set [2], 7.30; in [3], 8.29; in [4], 8.22. In [2], the “24 hr Dox Inducible TNFaFLGluc 293FRT/TO: TNF/PD1” value is on record as 19. For the same compound, the “24 hr Dox Inducible IL2FLGluc 293FRT/TO: IL2/PD1” value in data set [4] amounted to 2.3. For the same compound, the negative-log EC50 (pEC50) in data set [5] was 6.72; in data set [6], below 4.60. In data set [7], the “Liver Microsome Stability (Multiple Species): Rat - % Remaining after 30 min w/NADPH” value worked out at 19.7%. Moreover, the “Liver Microsome Stability (Multiple Species): Mouse - % Remaining after 30 min w/NADPH” value in data set [8] was found to be 44.9%. In data set [9], the “Liver Microsome Stability (Multiple Species): Human - % Remaining after 30 min w/NADPH” value is 65.3%. Also, the “Liver Microsome Stability (Multiple Species): Monkey - % Remaining after 30 min w/NADPH” value in data set [10] stood at 43.3%.
For the compound `CN1CC(OC(=O)Nc2ccc(N3CCC[C@@H]3c3csc(NC(=O)c4cccn4Cc4ccnc(F)c4)n3)cc2)C1` [Compound A173, 1-methylazetidin-3-yl (R)-(4-(2-(2-(1-((2-fluoropyridin-4-yl)methyl)-1H-pyrrole-2-carboxamido)thiazol-4-yl)pyrrolidin-1-yl)phenyl)carbamate], the pIC50 in data set [1] is 7.80; in [2] it was 6.49; in data set [3], 7.57; in [4] it was 7.39. For the same compound, in data set [2], the “24 hr Dox Inducible TNFaFLGluc 293FRT/TO: TNF/PD1” value is recorded as 20.3. Besides, the “24 hr Dox Inducible IL2FLGluc 293FRT/TO: IL2/PD1” value in [4] came to 2.5. The pEC50 is 6.07 in [5] and 5.06 in data set [6]. In addition, the “Liver Microsome Stability (Multiple Species): Rat - % Remaining after 30 min w/NADPH” value in data set [7] is given as 17.4%. Also, the “Liver Microsome Stability (Multiple Species): Mouse - % Remaining after 30 min w/NADPH” value in data set [8] is listed as 23.8%. Besides, in data set [9], the “Liver Microsome Stability (Multiple Species): Human - % Remaining after 30 min w/NADPH” value came to 70.3%. The “Liver Microsome Stability (Multiple Species): Monkey - % Remaining after 30 min w/NADPH” value in [10] was 54.6%.
In the case of `O=C(Nc1ccc(N2CCC[C@@H]2c2csc(NC(=O)c3cccn3Cc3ccnc(F)c3)n2)cc1)O[C@H]1CCOC1` [Compound A174, (S)-tetrahydrofuran-3-yl (4-((R)-2-(2-(1-((2-fluoropyridin-4-yl)methyl)-1H-pyrrole-2-carboxamido)thiazol-4-yl)pyrrolidin-1-yl)phenyl)carbamate], the pIC50 in data set [1] is 8.58; in data set [2] it was 7.09; in data set [3] it was 8.21; in [4], 8.10. Further, the “24 hr Dox Inducible TNFaFLGluc 293FRT/TO: TNF/PD1” value in [2] amounted to 30.9. Moreover, the “24 hr Dox Inducible IL2FLGluc 293FRT/TO: IL2/PD1” value in [4] amounted to 3.1. In addition, the negative-log EC50 (pEC50) was 7.11 in data set [5] and below 4.60 in [6]. In addition, the “Liver Microsome Stability (Multiple Species): Rat - % Remaining after 30 min w/NADPH” value in data set [7] stood at 42.5%. The “Liver Microsome Stability (Multiple Species): Mouse - % Remaining after 30 min w/NADPH” value in data set [8] came out at 29.4%. In data set [9], the “Liver Microsome Stability (Multiple Species): Human - % Remaining after 30 min w/NADPH” value was determined as 38%. Besides, the “Liver Microsome Stability (Multiple Species): Monkey - % Remaining after 30 min w/NADPH” value in data set [10] turned out to be 15.4%.
For `COC(=O)Nc1ccc(N2CCC[C@@H]2c2csc(NC(=O)c3cccn3Cc3ccnc(F)c3)n2)nc1` [Compound A175, methyl (R)-(6-(2-(2-(1-((2-fluoropyridin-4-yl)methyl)-1H-pyrrole-2-carboxamido)thiazol-4-yl)pyrrolidin-1-yl)pyridin-3-yl)carbamate], the pIC50 in data set [1] is 8.52; in data set [2], 7.09; in [3], 8.10; in [4] it was 7.89. The “24 hr Dox Inducible TNFaFLGluc 293FRT/TO: TNF/PD1” value in [2] is 26.7. Also, in data set [4], the “24 hr Dox Inducible IL2FLGluc 293FRT/TO: IL2/PD1” value is 4.3. Also, the values for the pEC50 in data set [5] and in data set [6] were 6.73 and below 4.60, respectively. For the same compound, the “Liver Microsome Stability (Multiple Species): Rat - % Remaining after 30 min w/NADPH” value in [7] is listed as 0.32%. In addition, the “Liver Microsome Stability (Multiple Species): Mouse - % Remaining after 30 min w/NADPH” value in data set [8] turned out to be 1.57%. Besides, the “Liver Microsome Stability (Multiple Species): Human - % Remaining after 30 min w/NADPH” value in data set [9] is 1.38%. Also, in data set [10], the “Liver Microsome Stability (Multiple Species): Monkey - % Remaining after 30 min w/NADPH” value is 0.22%.
